# From US20030013660A1, “Dioxolane analogs for improved inter-cellular delivery” (Shire BioChem Inc., priority 2000, published 2003)
# Where two headings read alike, the source gives them in different places.
# Tests used:
# Assay in all cases: 3H-TdR (3H-thymidine) incorporation assay at 72 hr
# [1] = tested on: MCF-7; type: cell-based, Human; details: Homo sapiens
# [2] = tested on: SF-268; type: cell-based, Human; details: Homo sapiens
# [3] = tested on: H-460; type: cell-based, Human; details: Homo sapiens
# [4] = tested on: CEM/dCK-; type: cell-based; details: for Factor* (Resistance Factor = Ratio of dCK- on Wild-type CCRF-CEM): ratio of IC50 CEM/dCK- to CCRF-CEM, 24 h; for IC50: Homo sapiens, CCRF-CEM, read-out: IC50 CEM/dCK- 24 h, 24 h drug exposure, wash, another 48 hr, deoxycytidine kinase-deficient CCRF-CEM
# Procedure: (§1) Table of IC50 Values (μM) for Controls
# (§2) Exposition of 24 hr to drug, wash, incubated for another 48 hr (total of 72 hr assay)
# (§3) (3H-Thymidine Incorporation Assay)
# [5] = tested on: CCRF-CEM; type: cell-based; details: Homo sapiens, CCRF-CEM
# Procedure: as §1, §2, §3
# [6] = MCF7, read-out: IC50 MCF-7 24 h, 24 h drug exposure, wash, another 48 hr, 3H-TdR incorporation at 72 hr
# [7] = SF-268, read-out: IC50 SF-268 24 h, 24 h drug exposure, wash, another 48 hr, 3H-TdR incorporation at 72 hr
# [8] = NCI-H460, read-out: IC50 H-460 24 h, 24 h drug exposure, wash, another 48 hr, 3H-TdR incorporation at 72 hr
# [9] = read-out: IC50 CCRF-CEM 24 h, 24 h drug exposure, wash, another 48 hr, 3H-TdR incorporation at 72 hr
SMILES,"IC50 [1, 6] [nM]","IC50 [2, 7] [nM]","IC50 [3, 8] [nM]",IC50 [4] [nM],"IC50 [5, 9] [nM]","IC50 ([1]; MCF7, read-out: IC50 MCF-7 24 h) [nM]","IC50 ([2]; SF-268, read-out: IC50 SF-268 24 h) [nM]","IC50 ([3]; NCI-H460, read-out: IC50 H-460 24 h) [nM]",Factor* (Resistance Factor = Ratio of dCK- on Wild-type CCRF-CEM) [4],IC50 ([5]; read-out: IC50 CCRF-CEM 24 h) [nM]
COc1cc2c(cc1OC)C(=O)/C(=C/c1cc(C)c(OC(=O)OC[C@H]3OC[C@@H](n4ccc(N)nc4=O)O3)c(C)c1)C2 [Compound 112],–,–,–,–,–,16,6.7,11,10,5.8
"COC1(OC[C@H]2OC[C@@H](n3ccc(N)nc3=O)O2)CCCCC1 [Compound 113, 4-AMINO-1-[2-(1- METHOXY- CYCLOHEXYLOXYMETHYL)- [1,3]DIOXOLAN-4-YL]-1H- PYRIMIDIN-2-ONE]",480,1100,240,> 100000,60,–,–,–,>1667,–
"CC(C)(C)OC(=O)N(CCCCC(=O)Nc1ccn([C@@H]2CO[C@H](COC(=O)CCCCN(Cc3ccccc3)C(=O)OC(C)(C)C)O2)c(=O)n1)Cc1ccccc1 [Compound 114, 5-(BENZYL-TERT- BUTOXYCARBONYL-AMINO)- PENTANOIC ACID 4-{4-[5- (BENZYL-TERT- BUTOXYCARBONYL-AMINO)- PENTANOYLAMINO]-2-OXO- 2H!PYRIMIDIN-1-YL}- [1,3]DIOXOLAN-2- YLMETHYL ESTER]",17,41,66,8000,16,–,–,–,500,–
"CCCCCCNC(=O)Nc1ccn([C@@H]2CO[C@H](COC(=O)NCCCCCC)O2)c(=O)n1 [Compound 119, HEXYL-CARBANIC ACID 4- [4-(3-HEXYL-UREIDO)-2- OXO-2#H!-PYRIMIDIN-1- YL]-[1,3]DIOXOLAN-2- YLMETHYL ESTER]",27000,94000,17000,96000,56000,–,–,–,˜2,–
"CCCCCCNC(=O)Nc1ccn([C@@H]2CO[C@H](CO)O2)c(=O)n1 [Compound 120, 1-HEXYL-3-[1-(2- HYDROXYMETHYL- [1,3]DIOXOLAN-4-YL)-2- OXO-1,2-DIHYDRO- PYRIMIDIN-4-YL]-UREA]",64000,> 100000,> 100000,> 100000,> 100000,–,–,–,–,–
"CCCCCCNC(=O)OC[C@H]1OC[C@@H](n2ccc(N)nc2=O)O1 [Compound 121, HEXYL-CARBAMIC ACID 4- (4-AMINO-2-OXO-2H- PYRIMIDIN-1-YL)- [1,3]DIOXOLAN-2- YLMETHYL ESTER]",37000,> 100000,28000,> 100000,17000,–,–,–,>6,–
"CCCCCCOC(=O)OC[C@H]1OC[C@@H](n2ccc(NC(=O)OCc3ccccc3)nc2=O)O1 [Compound 122, CARBONIC ACID 4-(4- BENZYLOXYCARBONYLAMINO- 2-OXO-2H-PYRIMIDIN-1- YL)-[1,3]DIOXOLAN-2- YLMETHYL ESTER HEXYL ESTER]",210,570,1900,61000,710,–,–,–,86,–

# Now from value to compound, other results behind:
"IC50 [1, 6] [nM]","IC50 [2, 7] [nM]","IC50 [3, 8] [nM]",IC50 [4] [nM],"IC50 [5, 9] [nM]",SMILES,"IC50 ([1]; MCF7, read-out: IC50 MCF-7 24 h) [nM]","IC50 ([2]; SF-268, read-out: IC50 SF-268 24 h) [nM]","IC50 ([3]; NCI-H460, read-out: IC50 H-460 24 h) [nM]",Factor* (Resistance Factor = Ratio of dCK- on Wild-type CCRF-CEM) [4],IC50 ([5]; read-out: IC50 CCRF-CEM 24 h) [nM]
150,620,380,> 100000,200,"CC(C)(C)OC(=O)N(CCCCC(=O)Nc1ccn([C@@H]2CO[C@H](CO)O2)c(=O)n1)Cc1ccccc1 [Compound 115, BENZYL-{4-[1-(2- HYDROXYMETHYL- [1,3]DIOXOLAN-4-YL)-2- OXO-1,2-DIHYDRO- PYRIMIDIN-4- YLCARBAMOYL]-BUTYL}- CARBAMIC ACID TERT!- BUTYL ESTER]",–,–,–,>500,–
110,2500,1400,> 100000,380,"COc1ccc(OC(=O)OC[C@H]2OC[C@@H](n3ccc(NC(=O)OCc4ccccc4)nc3=O)O2)cc1 [Compound 116, CARBONIC ACID 4-(4- BENZYLOXYCARBONYLAMINO- 2-OXO-2H-PYRIMIDIN-1- YL)-[1,3]DIOXOLAN-2- YLMETHYL ESTER 4- METHOXY-PHENYL ESTER]",–,–,–,>263,–
77,160,22,> 100000,28,"COc1ccc(OC(=O)OC[C@H]2OC[C@@H](n3ccc(N)nc3=O)O2)cc1 [Compound 118, CARBONIC ACID 4-(4- AMINO-2-OXO-2H- PYRIMIDIN-1-YL)- [1,3]DIOXOLAN-2- YLMETHYL ESTER 4- METHOXY-PHENYL ESTER]",–,–,–,>3571,–
